pKd: −log10 of the molar value.
Assays:
[1] = target: T1, axV-mNG (Homo sapiens, UniProt P08758); assay: equilibrium binding to liposomes, flow cytometry; conditions: 20:80 PS/PC liposomes, not free lipid; Kd is the protein concentration at half occupation; Hill coefficient ~1.2; HBS pH 7.4 with 2.5 mM CaCl2; 1 h; read-out: Kd (apparent, Hill)
T1 construct: gene ANXA5; N-terminal 6xHis, annexin V with C-terminal mNeonGreen fusion (also printed mNG-axV), tags kept, pET-28a(+), E. coli Rosetta-Gami 2(DE3)pLysS, Ni-NTA
T1 sequence (P08758 2-320): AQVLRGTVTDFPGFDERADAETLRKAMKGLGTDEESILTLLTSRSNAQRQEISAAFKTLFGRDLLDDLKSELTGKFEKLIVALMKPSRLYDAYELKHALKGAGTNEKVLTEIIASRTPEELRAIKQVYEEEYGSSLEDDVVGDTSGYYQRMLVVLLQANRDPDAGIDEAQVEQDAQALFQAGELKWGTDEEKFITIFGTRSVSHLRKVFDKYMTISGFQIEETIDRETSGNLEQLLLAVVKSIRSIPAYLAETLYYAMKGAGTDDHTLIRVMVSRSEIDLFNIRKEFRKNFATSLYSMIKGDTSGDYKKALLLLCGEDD

[2] = target: T2, mNG-lactC2 (Bos taurus, UniProt Q95114); assay: equilibrium binding to liposomes, flow cytometry; conditions: 20:80 PS/PC liposomes, not free lipid; Kd is the protein concentration at half occupation; Hill coefficient ~1.2; HBS pH 7.4, no calcium; 1 h; read-out: Kd (apparent, Hill)
T2 construct: gene MFGE8; C2 domain (residues 270-427), N-terminal 6xHis and mNeonGreen fusion kept, pET-28a(+), E. coli Rosetta-Gami 2(DE3)pLysS, Ni-NTA
T2 sequence (Q95114 270-427): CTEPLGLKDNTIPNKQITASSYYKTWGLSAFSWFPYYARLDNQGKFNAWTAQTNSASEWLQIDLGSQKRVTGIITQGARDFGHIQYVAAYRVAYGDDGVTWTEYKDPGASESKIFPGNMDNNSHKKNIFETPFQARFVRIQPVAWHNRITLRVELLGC

pKd [1]: 8.00 | pKd [2]: 6.97
Substance: 1,2-diacyl-sn-glycero-3-phospho-L-serine [phosphatidylserine]

Source: publication PMC12109337, “Engineered Fluorescent Variants of Lactadherin C2 Domain for Phosphatidylserine Detection in Flow Cytometry” (Biomolecules, 2025)
